Reference: patent US8258114B2, “Modulation of glucose-6-phosphatase translocase expression” (Isis Pharmaceuticals, Inc., priority 2004, dated 2012)
Oligonucleotides are written 5' to 3', each unit as a sugar letter and its base; * is a phosphorothioate linkage, no mark a phosphodiester; rarer units and linkages stand in square brackets, end groups in braces. Plain capitals give the bases only. e = 2'-O-(2-methoxyethyl) (MOE); [5mC] = 5-methylcytosine; d = 2'-deoxy (DNA)

Columns and labels:
[1] = test system: mouse glucose-6-phosphatase translocase mRNA; assay: Antisense inhibition of mouse glucose-6-phosphatase translocase mRNA in primary mouse hepatocytes, 150 nM, LIPOFECTIN (Table 22); type: cell-based; conditions: real-time PCR
Summary of the method: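 Primary CD-1 mouse hepatocytes at 65-75% confluency transfected ~4-7 h at 37° C with 150 nM 5-10-5 2′-MOE gapmer phosphorothioate oligonucleotides plus LIPOFECTIN (2.5 or 3 μg/mL per 100 nM). Harvested 16-24 h post-treatment; mRNA by real-time RT-PCR, normalized to GAPDH or RiboGreen total RNA, expressed as percent inhibition.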

[2] = Plasma glucose, cholesterol and triglycerides in normal Sprague-Dawley rats (Table 14); type: in vivo, rat; parameters: plasma GLUCOSE WK 0 / plasma GLUCOSE WK 3: unit not given beside the values
Protocol: (§1) Each treatment group was comprised of 4 animals.
To further assess the physiological effects resulting from inhibition of target mRNA, the rats were evaluated at the beginning (Wk 0) and at the end (Wk 3) of the treatment period for plasma glucose, plasma cholesterol, and plasma triglyceride levels. Triglycerides and cholesterol were measured by routine clinical analyzer instruments (e.g. Olympus Clinical Analyzer, Melville, N.Y.). Glucose levels were measured using a glucose analyzer, for example a YSI glucose analyzer (YSI Scientific, Yellow Springs, Ohio). Results are presented in Table 14 as the average level of plasma glucose, plasma cholesterol (CHOL), or plasma triglycerides (TRIG) measured per treatment group.

[3] = Body weight and tissue weights of normal Sprague-Dawley rats (Table 13); conditions: for Spleen weight / Fat weight / Kidney weight / Liver weight: end of study
Protocol: For three weeks, male Sprague-Dawley rats were injected twice-weekly with doses of 12.5 mg/kg, 25 mg/kg, or 50 mg/kg of ISIS 145760, ISIS 359543, or ISIS 366228. Each treatment group was comprised of 4 animals. Animals which received twice weekly injections of saline served as controls.
Body weight was monitored throughout the study period. […] Tissue weights were also measured at the end of the study.

[4] = test system: human glucose-6-phosphatase translocase mRNA; assay: Antisense inhibition of human glucose-6-phosphatase translocase mRNA in HepG2 cells (Table 11); type: cell-based; parameters: concentration or dose not given beside the values; conditions: LIPOFECTIN, mRNA by real-time PCR
Summary of the method: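 HepG2 cells at 65-75% confluency transfected with 2′-MOE gapmer oligonucleotides using LIPOFECTIN (2.5 or 3 μg/mL per 100 nM oligo) for 4-7 h and harvested 16-24 h later. Target mRNA measured by RT real-time PCR and normalized to GAPDH or RiboGreen total RNA.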

[5] = test system: glucose-6-phosphatase translocase mRNA; assay: Target reduction in liver: rat dose-response study (Table 12); type: in vivo; conditions: Sprague-Dawley rats; for % Inhibition, target reduction in liver: three weeks
Protocol: as §1
At the end of the treatment period, animals were sacrificed and target reduction in liver was measured by real-time PCR as described in other examples herein. Results are shown in Table 12 as the average percent reduction in glucose-6-phosphatase translocase levels as compared to saline treated control.

## CGGCCCATCTTGGTGCGGAT (e[5mC]*eG*eG*e[5mC]*e[5mC]*d[5mC]*dA*dT*d[5mC]*dT*dT*dG*dG*dT*dG*e[5mC]*eG*eG*eA*eT; antisense) [ISIS 145706]
[1]
  % Inhib of mouse glucose-6-phosphatase translocase mRNA levels: 54%
[2]; 12.5 mg/kg twice weekly, saline 58
  plasma cholesterol (CHOL) WK 3: 51
[2]; 12.5 mg/kg twice weekly, saline 69
  plasma triglycerides (TRIG) WK 0: 54
[2]; 12.5 mg/kg twice weekly, saline 74
  plasma cholesterol (CHOL) WK 0: 69
[2]; 12.5 mg/kg twice weekly, saline 135
  plasma GLUCOSE WK 0: 149
[2]; 12.5 mg/kg twice weekly, saline 139
  plasma GLUCOSE WK 3: 151
[2]; 12.5 mg/kg twice weekly, saline 140
  plasma triglycerides (TRIG) WK 3: 61
[2]; 25 mg/kg twice weekly
  plasma GLUCOSE WK 0: 149
  plasma GLUCOSE WK 3: 148
  plasma cholesterol (CHOL) WK 0: 80
  plasma cholesterol (CHOL) WK 3: 59
  plasma triglycerides (TRIG) WK 0: 45
  plasma triglycerides (TRIG) WK 3: 58
[2]; 50 mg/kg twice weekly
  plasma GLUCOSE WK 0: 148
  plasma GLUCOSE WK 3: 151
  plasma cholesterol (CHOL) WK 0: 79
  plasma cholesterol (CHOL) WK 3: 57
  plasma triglycerides (TRIG) WK 0: 66
  plasma triglycerides (TRIG) WK 3: 52
[2]; 12.5 to 50 mg/kg, three weeks
  plasma triglycerides (in words): prevented the increases in triglycerides observed in saline-treated animals
[3]; 12.5 mg/kg twice weekly, saline 0.7
  Spleen weight: 0.7 grams
[3]; 12.5 mg/kg twice weekly, saline 1.8
  Fat weight: 1.5 grams
[3]; 12.5 mg/kg twice weekly, saline 3
  Kidney weight: 3 grams
[3]; 12.5 mg/kg twice weekly, saline 15
  Liver weight: 15 grams
[3]; 12.5 mg/kg twice weekly, week 3, saline 290
  Body weight: 289 grams
[3]; 25 mg/kg twice weekly
  Fat weight: 1.3 grams
  Kidney weight: 3 grams
  Liver weight: 15 grams
  Spleen weight: 1.0 grams
[3]; 25 mg/kg twice weekly, week 3
  Body weight: 300 grams
[3]; 50 mg/kg twice weekly
  Fat weight: 1.2 grams
  Kidney weight: 3 grams
  Liver weight: 16 grams
  Spleen weight: 0.9 grams
[3]; 50 mg/kg twice weekly, week 3
  Body weight: 290 grams
[3]; 12.5 to 50 mg/kg, throughout the study
  Increases in body weights (in words): comparable to the increases in body weight observed for saline-treated control animals
[4]
  % Inhib: 96%
[5]; 12.5 mg/kg twice weekly
  % Inhibition, target reduction in liver: 12%
[5]; 25 mg/kg twice weekly
  % Inhibition, target reduction in liver: 56%
[5]; 50 mg/kg twice weekly
  % Inhibition, target reduction in liver: 77%
[5]; 12.5 to 50 mg/kg
  target mRNA levels in rat liver (in words): effective in reducing target mRNA levels in rat liver in a dose-dependent manner
